In patent US7199286B2, “Plant-derived novel pathogen and SAR-induction chemical induced promoters, and fragments thereof” (Syngenta Participations AG, priority 1999, dated 2007):

Test system: NI16 promoter fragment 544 bp
Assay: GUS florescence assay of promoter::GUS plants after SA application, NI16 544 bp fragment
Assay type: in vivo, Arabidopsis
Details: 5 mM SA spray
Text: A binary promoter::reporter plasmid (pNOV2374) for Arabidopsis transformation was constructed. The regulatory/promoter sequence was fused to the GUS reporter gene (Jefferson et al. (1987) EMBO J 6: 3901-3907) by recombination using […] Technology according to the manufacturer's protocol as described in the Instruction Manual (LifeTechnologies, Rockville, Md.). The construct was then transformed into Agrobacterium tumefaciens strains by electroporation. pNOV2374 is a binary vector with a VS1 origin of replication, a copy of the Agrobacterium virg gene in the backbone, and a Basta® resistance selectable marker cassette between the left and right border sequences of the T-DNA. The Basta® selectable marker cassette comprises the Agrobacterium tumefaciens manopine synthase promoter (AtMas) (Barker et al., Plant Mol. Biol. 2, 335-350 (1983)) operably linked to the gene encoding Basta® resistance (i.e., the “BAR” gene, phosphinothricin acetyl transferase) (White et al., Nucl Acids Res 18: 1062 (1990)) and the 35S terminator. The AtMas promoter, the BAR coding sequence, and the 35S terminator are located at nt 4211 to nt 4679, nt 4680 to nt 5228, and nt 5263 to nt 5488, respectively, of pNOV2374. The vector contains […] recombination components, which were introduced into the binary vector backbone by ligating a blunt-ended cassette containing attR sites, ccdB, and a cholramphenicol resistance marker using the […] Vector Conversion System (LifeTechnologies, Rockville, Md.). The […] cassette was located between nt 126 and 1818 of pNOV2374. The promoter cassettes were inserted through an LR recombination reaction whereby the DNA sequence of pNOV2374 between nt 126 and nt 1818 were removed and replaced with the promoter of interest flanked by att sequences. […] The GIG gene (SEQ ID NO:29) contains the ST-LS1 intron from Solanum tuberosum at nt 385 to nt 576 of GUS (obtained from Dr. Stanton […], Purdue University, and described in Narasimhulu, et al. (1996) Plant Cell 8: 873-886.). […] The treatment was applied as a fine mist to the leaves. Leaf tissue was harvested from plants for the β-glucuronidase (GUS) florescence assay prior to SA application (T0) and at various time intervals after application. For quantitative analysis of promoter activity following induction treatments or in various Arabidopsis tissues and organs, GUS expression is measured florometrically. Tissue samples were harvested and ground in ice cold GUS extraction buffer (50 mM Na2HPO4 pH 7.0, 5 mM DTT, 1 mM Na2EDTA, 0.1% TritonX100, 0.1% sarcosyl). Ground samples were spun in a microfuge at 10,000 rpm for 15 minutes at 4° C. Following centrifugation, the supernatant was removed for the GUS assay and for a protein concentration determination. To measure GUS activity, the plant extract was assayed in GUS assay buffer (50 mM Na2HPO4 pH 7.0, 5 mM DTT, 1 mM Na2EDTA, 0.1% TritonX100, 0.1% sarcosyl, 1 mM 4-Methylumbelliferyl-beta-D-glucuronic acid dihydrate (MUG)), pre-warmed to 37° C. Reactions were incubated, and 100 uL aliquots were removed at 10 minute intervals over 30 minutes to stop the reaction by adding the 100 uL aliquots to tubes containing 900 uL of 2% Na2CO3. The stopped reactions were then read on a Tecan Spectroflourometer at 365 nm excitation and 455 emission wavelengths. Protein concentrations were determined using the BCA assay following the manufacturer's protocol. GUS activity is expressed as pmol MU/mg protein/min.

## O=C(O)c1ccccc1O [SA, salicylic acid]
2 h
  GUS Activity Induced by SA: 52.2 pmol/mg protein/min
  GUS activity Fold-change relative to T0 (uninduced): 4.3 fold
4 h
  GUS Activity Induced by SA: 72.5 pmol/mg protein/min
  GUS activity Fold-change relative to T0 (uninduced): 6.0 fold
8 h
  GUS Activity Induced by SA: 194.9 pmol/mg protein/min
  GUS activity Fold-change relative to T0 (uninduced): 16.2 fold
24 h
  GUS Activity Induced by SA: 205.4 pmol/mg protein/min
  GUS activity Fold-change relative to T0 (uninduced): 17.0 fold
